The record followed here is patent publication US6046228A, “Anti-viral pharmaceutical compositions containing saturated 1,2-dithiaheterocyclic compounds and uses thereof” (priority 1999, dated 2000).

Read-outs that look alike come from different tables or passages of the source. A value given as a limit tells only on which side of the number the result lay.

The test system of one test is CEM-SS cells. As to the kind of experiment: XTT assay, cytotoxicity (IC50), CEM-SS cells. Type of test: cell-based.
The test system of another test is HIV-1 Calo-139. As to the kind of experiment: XTT cytopathicity assay, drug resistant HIV-1. Type of test: cell-based. The settings on record: MT-2, Calo-139. How it is done:
(§1) Initial anti-HIV screening was performed with CEM-SS cells and HIV-1RFusing the XTT cytoprotection assay as previously described (Weislow et al., J. National Cancer Inst. 81: 577-586, (1989)). HIV-1 isolates included common laboratory stains (RF, IIIB and MN), as well as a panel of HIV-1 clinical isolates (Cushman et al., J. Med. Chem. 37: 3040-3050, (1994)). The pyridone-resistant HIV-1A17 isolate (Nunberg et al., J. Virol., 65: 4887-4892 (1991)) was obtained from Emilio Emini at Merck Sharpe and Dohme Laboratories. Phytohemagglutinin-stimulated human peripheral blood lymphocytes (PBLs) and fresh monocyte-macrophage (Mono/MF) cultures were prepared and utilized in antiviral assays as previously described (Rice et al., Proc. Nat'l. Academy Science, USA 90: 9721-9724, (1993)); (Cushman et al., J. Med. Chem. 37: 3040-3050, (1994)). EC50 values for these cultures indicate the drug concentration that provided a 50% reduction in viral p24 production. […] The compounds can be synthesized according to the teachings of Singh et al., Sulfur Letters 8: 107-114, (1988). The 4,5-cis-dihydroxy(1,1-dioxy-1,2,-dithiohexane) compound (NSC 624151) has been abbreviated as 624151 for convenience. MT-2, MT-4, U1, HeLa-CD4-LTR-β-gal and 174xCEM cells were obtained from the AIDS Research and Reference Program (National Institute of Allergy and Infectious Disease, National Institutes of Health, Bethesda, Md. USA), as were the HIV-2MS and the AZT-resistant HIV-1G910-6 isolates.
(§2) ^a Anti-HIV studies utilizing lymphocytederived cell lines were
(§3) performed using the XTT cytopathicity assay, while antiviral assays

The next test concerns HIV-1 DPS-181. The test can be described thus: XTT cytopathicity assay, drug resistant HIV-1. It is filed as cell-based. To be noted: MT-2, DPS-181. As for the experimental part:
as §1, §2, §3

The test system of another test is HIV-1 E-BPTU-181. As to the kind of experiment: XTT cytopathicity assay, drug resistant HIV-1. Type of test: cell-based. The settings on record: MT-2, E-BPTU-181. As for the experimental part:
as §1, §2, §3

For a further test, the system named is HIV-1 HEPT-236. The test can be described thus: XTT cytopathicity assay, drug resistant HIV-1. It is filed as cell-based. To be noted: MT-2, HEPT-236. How it is done:
as §1, §2, §3

The test system of another test is HIV-1 OC-100. As to the kind of experiment: XTT cytopathicity assay, drug resistant HIV-1. The settings on record: MT-2, OC-100. Type of test: cell-based. As for the experimental part: as §1, §2, §3
For a further test, the system named is HIV-1 TIBO-98/100. As to the kind of experiment: XTT cytopathicity assay, drug resistant HIV-1. The settings on record: MT-2, TIBO-98/100. Type of test: cell-based. How it is done: as §1, §2, §3
The test system of a further test is HIV-1 Thiazol-108. As to the kind of experiment: XTT cytopathicity assay, drug resistant HIV-1. Type of test: cell-based. The settings on record: MT-2, Thiazol-108. As for the experimental part:
as §1, §2, §3

A further test has as its system HIV-1 UC38-181. The test can be described thus: XTT cytopathicity assay, drug resistant HIV-1. Type of test: cell-based. The settings on record: MT-2, UC38-181. How it is done: as §1, §2, §3
The target in a further test is T1, HIV-1 integrase (Human immunodeficiency virus type 1 group M subtype B, UniProt P04585).
T1 construct: the purified HIV-1 protease and integrase enzymes
The test can be described thus: HIV-1 integrase activity. It is filed as biochemical.

Another test relates to HIV-1RF virions. The test can be described thus: viral inactivation assay, HeLa-CD4-LTR-βgal cells. Type of test: cell-based. To be noted: FIG. 2(B), in words. How it is done:
HeLa-CD4-LTR-βgal cells (1.5×10^4 /well) were plated in 200 μl volume in flat bottom 96-well microtiter plates for 24 hours, after which the fluid was removed and replaced with drug-treated samples. The HIV-1RF stock was treated with various concentrations NSC 624151 for 2 hours at 37° C., followed by centrifugation (18,000×g for 1 hour at 4° C.) to remove compound from the virus, preparation of serial two-fold dilutions and plating of 200 μl of each dilution in triplicate onto the cell monolayer. The cultures were then incubated for 4 additional days, and monolayers were then fixed for 5 minutes with 2% formaldehyde/2% glutaraldehyde, washed twice with cold PBS and then stained with X-gal substrate for 24 hours at 37° C. The number of blue-stained cells (each indicating a single infectious unit) were then counted in each well and the number of infectious units per ml (mean±SD) of sample were determined values calculated.

Another test addresses T2, HIV-1 protease (Human immunodeficiency virus type 1 group M subtype B, UniProt P04585).
T2 construct: the purified HIV-1 protease and integrase enzymes
The test can be described thus: processing of purified recombinant Pr55^gag by purified HIV-1 protease. The settings on record: data not shown, in words. It is filed as biochemical.

On to `O=S1(=O)C[C@H](O)[C@H](O)CS1` (relative stereo) [NSC 624151, cis-1,1-dioxo[1,2]dithiane-4,5-diol], for which the IC50 was 116 µM with CEM-SS cells (Homo sapiens, CEM-SS, Table 5, cytotoxicity, read-out: IC50 Duplicates); 122 µM in the test with CEM-SS cells (Homo sapiens, CEM-SS, Table 5, cytotoxicity, read-out: IC50 Mean); 184 µM with CEM-SS cells (Homo sapiens, CEM-SS, cytotoxicity, CEM-SS cells, read-out: XTT Assay IC50); 127 µM in the test with CEM-SS cells (Table 5, cytotoxicity, read-out: IC50 Duplicates); above 100 µM on HIV-1 integrase (read-out: Integrase ID50). For the same compound, the 50% effective concentration (EC50) in the test with HIV-1 Calo-139 was determined as 15 µM; with HIV-1 DPS-181 it was 16.5 µM; in the test with HIV-1 E-BPTU-181, 17 µM; with HIV-1 HEPT-236, 16 µM; with HIV-1 OC-100 it was 12.7 µM; in the test on HIV-1 TIBO-98/100, 16 µM. Moreover, the EC50 in the test with HIV-1 Thiazol-108 and in the test on HIV-1 UC38-181 was 17 µM throughout. At HIV-1 integrase (in words), the “inhibition of HIV-1 integrase” value is “not inhibited”. Further, the “inactivation of viral infectivity” value in the test on HIV-1RF virions is “enter intact virions and inactivate the viral infectivity”; with HIV-1RF virions (listed as 624151) it was “concentration-dependant inactivation of viral infectivity”. The “inhibition of purified HIV-1 protease processing of recombinant Pr55^gag” value on HIV-1 protease is “not to inhibit purified HIV-1 protease”.
